The source of these data is paper PMC8607422, “Development of a novel TLR8 agonist for cancer immunotherapy” (Molecular Biomedicine, 2020).

Data set [1] addresses T1, hTLR8 (Homo sapiens, UniProt Q9NR97).
T1 construct: host or cells: HEK-Blue hTLR8 (HEK293-derived, per own knowledge)
T1 sequence (Q9NR97 27-1041): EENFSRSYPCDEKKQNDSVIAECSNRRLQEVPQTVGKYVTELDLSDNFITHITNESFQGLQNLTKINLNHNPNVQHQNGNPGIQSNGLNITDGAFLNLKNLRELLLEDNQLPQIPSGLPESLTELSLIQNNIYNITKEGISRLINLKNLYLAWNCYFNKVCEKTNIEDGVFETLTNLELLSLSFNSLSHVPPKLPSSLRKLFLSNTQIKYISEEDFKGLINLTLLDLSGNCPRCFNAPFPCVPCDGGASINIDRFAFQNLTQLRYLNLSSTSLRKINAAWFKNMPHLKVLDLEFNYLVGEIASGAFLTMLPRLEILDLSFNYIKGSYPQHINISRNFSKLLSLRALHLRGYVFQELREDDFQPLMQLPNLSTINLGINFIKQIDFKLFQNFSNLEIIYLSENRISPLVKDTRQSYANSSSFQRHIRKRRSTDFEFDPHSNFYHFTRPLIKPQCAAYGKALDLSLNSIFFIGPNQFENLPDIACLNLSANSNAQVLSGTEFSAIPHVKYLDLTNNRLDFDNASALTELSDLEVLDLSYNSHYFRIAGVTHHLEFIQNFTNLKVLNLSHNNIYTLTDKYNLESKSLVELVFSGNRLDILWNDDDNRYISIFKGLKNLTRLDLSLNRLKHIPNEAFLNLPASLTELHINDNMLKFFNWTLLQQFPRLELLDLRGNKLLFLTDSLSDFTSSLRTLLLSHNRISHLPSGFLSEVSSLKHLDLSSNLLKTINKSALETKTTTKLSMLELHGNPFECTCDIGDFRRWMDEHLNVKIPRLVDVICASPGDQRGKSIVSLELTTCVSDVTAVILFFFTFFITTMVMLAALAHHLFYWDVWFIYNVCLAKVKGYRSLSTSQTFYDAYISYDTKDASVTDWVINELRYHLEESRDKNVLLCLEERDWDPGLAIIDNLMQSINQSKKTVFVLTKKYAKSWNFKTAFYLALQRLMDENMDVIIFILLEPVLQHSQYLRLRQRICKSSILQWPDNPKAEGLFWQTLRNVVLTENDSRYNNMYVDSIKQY
Nature of the data set: HEK-Blue hTLR8 SEAP reporter agonist assay. It is filed as cell-based. An excerpt: HEK-Blue™ hTLR4, 7, 8 and 9 cell lines were purchased from InvivoGen (Hong Kong). The cells express the human TLR gene and NF-κB/AP-1-inducible SEAP (secreted embryonic alkaline phosphatase) reporter gene. SEAP levels produced upon TLR stimulation can be determined by QUANTI-Blue™. In the cell-based assay, the main reagents used were QUANTI-Blue™ (InvivoGen) and ATPlite 1 Step (Perkin Elmer). The main instruments used were the microplate reader SpectraMax 340PC (Molecular Device) and Envision (Perkin Elmer). […] The compounds were in 10 mM stock solution in DMSO and stored at − 20°C. […] DMSO was used as the negative control. […] The cells were cultured and treated with the compounds at 37°C, 5%CO2 for 24 h. After 24 h of incubation, 20 μl of the supernatant of each well was added to 180 μl of QUANTI-Blue™. The plates were incubated at 37°C for 1.5 h. After 1.5 h of incubation, the optical density was measured using the spectrophotometer at 650 nm in the microplate reader of SpectraMax 340PC. The cell viability of each well was determined using ATPlite 1 Step following the manufacturer’s instruction. The luminescence signal in each well of plates was measured in the microplate reader of Envision.

On the set-up of data set [2]: method as in Northfelt, et al., [39]. The conditions noted are these: human, sc 0.1 mg/m^2; ref Northfelt, et al., [39]; cited from earlier work.

Broadly, the EC50 is the concentration that produces a half-maximal response. Broadly, the AUC(0-t) is exposure summed from dosing to a finite time, without extrapolation to infinity. The term Cmax denotes the peak of the concentration-time curve. A word on the Tmax: it is the time from dosing to the highest level. Consider `CCCN(CCC)C(=O)C1=Cc2ccc(-c3ccc(C(=O)N4CCCC4)cc3)cc2N=C(N)C1` [Motolimod, motolimod], for which the EC50 in data set [1] (HEK-Blue hTLR8 cells, 24 h, SEAP, read-out: EC50 in hTLR8 agonist activity (TLR8 cell EC50)) was 109 nM. Further, the TLR8 selectivity in data set [1] (TLR8 over other TLR cell EC50) was determined as 182 fold. In addition, in data set [2], the “AUC(0-t)” value is 2.99 ng·h/mL, the Cmax is 1.52 ng/mL, the Tmax is on record as 0.53 h and the t1/2 is reported as 1.73 h.
